Entries after “also recorded” stand apart in the source; their conditions may differ.
How the values were obtained:
MT-1 cells = experiment: PDT effect on in vitro MT-1 cells (SRB assay); type: cell-based, human
Method: Method: MT-1 cells were grown and maintained in RPMI media containing penicillin and streptomycin with 10% fetal bovine serum at 37 degrees Celsius. Once the cells had reached subconfluence they were resuspended in free RPMI. The cells were harvested using 0.05% trypsin—0.05 mM EDTA solution. Cells were then counted with a hemocytometer and plated at 2×10^5 cells/ml in a 96 well plate. BPD-MA was then added to the individual wells at a concentration of 1 ug/ml or 10 ug/ml. […] Following treatment the cells were allowed to survive for 24 hours following which an SRB assay was performed to establish the number of viable cells remaining. Briefly, cells were fixed in 10% trichloroacetic acid and stained with a […] solution selectively staining viable cells. A spectrophotometer was then used to assess the absorbance of 540 nm light within individual wells of the 96 well plate which was correlated to the number of remaining cells following treatment.

[1] = test system: MT-1 cells, a human breast cancer cell line; experiment: Effect of PDT in vertebrae and long bones with metastases (area of effect, histology); type: in vivo, mu/mu nude rats
Text: (§1) Method: Thirty mu/mu nude rats were used in this part of the study. The rats received a left ventricular intracardiac injection with MT-1 cells as described earlier. At day 21 post injection each animal was anesthetized with 2% halothane/air mixture and placed on a custom made radiolucent stereotactic jig in the left lateral decubitus position. Prior to this it was established by histological methods that animals with tumors contained tumor in most vertebral bodies and long bones. Because lesions within the vertebral bodies could not be detected by fine detail radiography, T12 and L4 vertebrae were selected as representative levels for treatment. An 18 g needle was placed on the cortex of the targeted vertebrae or long bone with the use of a mini C-arm image intensifier. A 300 mW diode laser coupled to a 200 um fiber was used to deliver 690 nm light. BPD-MA was administered intravenously at a dose of 2 mg/kg prior to the administration of the light dose. […] Light doses ranged from 25 J to 150 J. Light was delivered at 150 mW for all treatments and the effects of different drug light intervals and different light doses using a fixed drug concentration were evaluated. The animals were examined for paralysis post treatment. The animals were sacrificed using CO2 inhalation. Vertebrae were then harvested and fixed in 10% formalin for 7 days. Micro-CT images were obtained and then the samples were decalcified in 10% formic acid for 7 days. The tissue was then blocked and paraffin embedded and 10 um sections were cut. The sections were analyzed under light microscopy using H&E staining as well as TUNEL and human EGF-r immunohistochemistry. The area of effect as denoted by necrosis and apoptosis was identified and measured using a Nikon slide scanner and Image Pro software.

[2] = test system: orthotopic chondrosarcoma and fibrosarcoma tumor models; settings: 4 weeks post treatment; 15 minute and 3 hour drug light interval; cited from earlier work
[3] = Effect of light dose on the rat spinal cord, spinal nerves and peripheral nerves (hind leg paralysis); type: in vivo, mu/mu nude rats
Text: as §1

[4] = test system: MT-1luc+ metastatic lesions; experiment: Targeted bioluminescent lesions, pre and post-PDT bioluminescent imaging; type: in vivo, nude mu/mu rats
Method: Method: Twenty nude mu/mu (Harlan) female rats (4-6 weeks of age) were used in this part of the study. The protocol was in accordance with the Canadian Council on Animal Care prior to initiation. Prior to injection each animal was anesthetized with 2% halothane/air mixture in a sterile environment. Twenty animals were used for injection. The chest was prepared with alcohol and 2×10^6 MT-1luc+ cells, a human breast cancer cell line carrying the luciferase reporter gene, were injected into the left ventricle using a 1 ml syringe with a 26 g needle. Pulsatile blood in the syringe was ensured prior to each injection. The animals were placed back into their cages and fed water and rat chow ad libitum. At day 18 the animals were imaged using the Xenogen IVIS system. To do this 100 mg/kg luciferin was injected into the peritoneal cavity of each animal and each animal was imaged 5 minutes following injection for a 1 to 5 minute image acquisition period. The animals were then imaged on the same custom made stereotactic radiolucent jig using a mini-C-arm image intensifier which allowed correlation of the bioluminescent signal to the vertebrae. FIGS. 1A-C show stereotactic targeting of bioluminescent metastatic lesions using a mini-C-arm image intensifier. FIG. 1A is a bioluminescent overlay image of a nude rat with metastatic lesions on a radio lucent stereotactic jig. FIG. 1B is a fluoroscan image of markers placed along the grid of the stereotactic jig in correlation to the bioluminescent metastases and resulting in localization of the lesion.
The lesions were then targeted and treated with 25 J or 150 J at a 3 hour drug light interval. The animals were then re-imaged with the Xenogen IVIS system 48 hours post treatment in the stereotactic frame. Signal intensity (photons/second/cm^2) at the targeted site before treatment was compared to signal intensity following treatment and compared to lesions not treated using Igor Pro software (Alameda, Calif.). The animals were then sacrificed using CO2 inhalation and the spines and long bones were harvested. Samples were placed in 10% formalin for 7 days and micro-CT images of the vertebrae and long bones were obtained. The vertebrae were examined histologically using H&E staining and immunohistologically with human EGF-r and TUNEL stains as described earlier. ANOVA Bonferroni and two-tailed paired T-test statistical techniques were applied.

[5] = pig, in vivo
Method: In this study, 50 kg pigs were used. The pigs were pre-anesthetized with ketamine/xylazine 20/2 mg/Kg IM for induction. An IV line was established and 0.9% saline solution was run at 5 ml/Kg/hr. Verteporfin was administered through the IV line using an infusion pump. The pigs were intubated and maintained on a ventilator with isofluorane/nitrous oxide inhalant by animal care professionals. The pigs were placed prone on a radiolucent surgical table with appropriate bolsters for support and padding. A sterile prep was made with betadine soap and scrub and prep solution. A small stab incision was made over the lumbothoracic spine of the pig.
Placement into the vertebral body through a transpedicular and parapedicular approach was facilitated by the use of a CT-Carm. The L1 and L2 vertebrae were targeted.
A cannulated exchange sheath was placed over the guide rod and inserted through the incision. The guide rod was then removed, and a fiber optic cable sheath was then inserted down the cannula of the exchange sheath. […] The cannulated bone screw assembly was pushed down the cannulated exchange sheath. […]
Detector and diffusing fibers were placed in the same transverse plane. The diffusing fiber was moved incrementally with respect to the detector fiber and differences in power were measured at five different distances from the detector source using a computer aided photomultiplier tube. […]

[6] = BPD uptake in the serum and spinal cord (fluorimetry, fluorescent microscopy); type: in vivo, rats (Sprague-Dawley)
Method: Method: BPD-MA was administered to 10 rats (Sprague-Dawley, 150 gm) through a tail vein injection. Animals were then sacrificed using CO2 inhalation overdose at 16 minutes, 3 hrs, 6 hrs and 24 hrs following injection. Control animals without BPD-MA were euthanized in a similar fashion. Serum samples and spinal cord tissue samples were harvested from the animals at the time of euthanasia. A segment of spine was also fixed in 10% formalin for 7 days followed by decalcification for 7 days in 10% formic acid for fluoroscopic microscopic analysis. A control assay determined that BPD-MA fluorescence was not affected by formic acid. BPD-MA concentration within the serum and spinal cord tissue was then determined using fluorimetry. Briefly, the samples were solubilized and the samples were tested with excitation and emission spectra specific to BPD-MA. The fluorescence of the drug within the tissue was correlated to the specific uptake of the drug within the tissue. Fluorescent microscopy was also used to visualize the presence or absence of BPD-MA within the vertebrae and spinal cord at 1 hour, 3 hours and 24 hours.

[7] = Treatment groups: deaths of rats; type: in vivo, mu/mu nude rats
[8] = 25 J, drug-light interval 3 hrs
[9] = 50 J, drug-light interval 3 hrs
[10] = 75 J, drug-light interval 0.75 hrs
[11] = 75 J, drug-light interval 3 hrs
[12] = 100 J, drug-light interval 3 hrs
[13] = 150 J, drug-light interval 3 hrs

Substance: benzoporphyrin derivative monoacid ring A [BPD-MA]
- Mean (absorbance), SRB assay (MT-1 cells; Group 1: drug 1 ug/ml, light 200 J/cm^2, 690 nm, 8 hour incubation): .2923
- Mean (absorbance), SRB assay (MT-1 cells; Group 2: drug 1 ug/ml, light 25 J/cm^2): .1946
- Mean (absorbance), SRB assay (MT-1 cells; Group 3: drug 10 ug/ml, light 200 J/cm^2): .2558
- Mean (absorbance), SRB assay (MT-1 cells; Group 4: drug 10 ug/ml, light 25 J/cm^2): .2049
- Mean (absorbance), SRB assay (MT-1 cells; Group 7: drug 1 ug/ml, no light): 1.2392
- difference in absorbance versus untreated wells (MT-1 cells; drug only): No significant difference
- difference in absorbance versus untreated wells (MT-1 cells; wells treated with light and drug): significant difference
- Antero-Posterior dimension of effect [1, 8]: 2.62 mm
- Rostral-Caudal dimension of effect [1, 8]: 4.59 mm
- Area of effect ([1]; 25 J, drug-light interval 3 hrs, 2 mg/kg i.v.): 8.435 mm^2
- Antero-Posterior dimension of effect [1, 9]: 3.89 mm
- Area of effect [1, 9]: 15.04 mm^2
- Rostral-Caudal dimension of effect [1, 9]: 5.66 mm
- Antero-Posterior dimension of effect [1, 10]: 5.05 mm
- Area of effect [1, 10]: 82.47 mm^2
- Rostral-Caudal dimension of effect [1, 10]: 17.47 mm
- Antero-Posterior dimension of effect [1, 11]: 5.09 mm
- Area of effect [1, 11]: 52.38 mm^2
- Rostral-Caudal dimension of effect [1, 11]: 11.67 mm
- Antero-Posterior dimension of effect [1, 12]: 5.05 mm
- Area of effect [1, 12]: 45.49 mm^2
- Rostral-Caudal dimension of effect [1, 12]: 13.8 mm
- Antero-Posterior dimension of effect [1, 13]: 5.78 mm
- Area of effect [1, 13]: 80.53 mm^2
- Rostral-Caudal dimension of effect [1, 13]: 13.05 mm
- diameter of largest area of effect ([1]; 200 um fiber optical cable, treatment time 16 minutes): 2.2 cm
- ablation of tumor tissue ([1]; 24 hour drug light interval): No effect; also recorded: no difference
- effect on tumor, bone, bone marrow or spinal cord ([1]; drug only, no light): did not affect
- lesions completely ablated [2]: 33%
- Hind Leg Paralysis (animals) ([3]; 25 J, T12, drug light interval 3 hr, N = 5): 0
- Hind Leg Paralysis (animals) ([3]; 50 J, T12, drug light interval 3 hr, N = 5): 2 unilateral
- Hind Leg Paralysis (animals) ([3]; 75 J, T12, drug light interval 3 hr, N = 4): 1 bilateral
- Hind Leg Paralysis (animals) ([3]; 100 J, T12, drug light interval 3 hr, N = 3): 2 unilateral
- Hind Leg Paralysis (animals) ([3]; 125 J, T12, drug light interval 3 hr, N = 2): 1 bilateral
- Hind Leg Paralysis (animals) ([3]; 150 J, T12, drug light interval 0.25 hr, N = 4): 4
- Hind Leg Paralysis (animals) ([3]; 150 J, T12, drug light interval 3 hr, N = 4): 3 bilateral
- decrease in tumor growth compared to control lesions ([4]; 25 J, 3 hour drug light interval): 66%
- PostRx/PreRx, Rx Area [4, 8]: 1.25
- reduction of bioluminescent signal from the targeted site ([4]; 150 J, 3 hour drug light interval, 48 hours following treatment): 87%
- decrease in tumor growth compared to control lesions ([4]; 150 J, 3 hour drug light interval, one treatment): 99.8%
- PostRx/PreRx, Rx Area ([4]; 150 J, drug light interval 3 hrs): 0.139
- Mean Count Rx Area ([4]; Post-PDT (48 hours), 25 J, drug-light interval 3 hrs): 2.33 × 10^4
- Mean Count Rx Area ([4]; Post-PDT (48 hours), 150 J, drug light interval 3 hrs): 1.42 × 10^3
- Mean Count Rx Area ([4]; Pre-PDT, 25 J, drug-light interval 3 hrs (n = 2)): 1.86 × 10^4
- Mean Count Rx Area ([4]; Pre-PDT, 150 J, drug light interval 3 hrs (n = 5)): 1.02 × 10^4
- complications attributed to the PDT [5]: no hindleg paralysis
- BPD-MA fluorescence in bone marrow ([6]; 1 hour): contained signal
- BPD-MA fluorescence in spinal cord ([6]; 1 hour): no drug being present
- BPD-MA fluorescence in bone marrow ([6]; 3 hours): intense signal
- BPD-MA fluorescence in spinal cord ([6]; 3 hours): intense signal
- fluorescence of the drug within the spinal cord and vertebrae ([6]; 24 hours): returned to baseline levels
- serum drug concentration ([6]; after 3 hours): began to decline
- serum drug concentration ([6]; by 24 hours post injection): returned to baseline
- uptake of BPD-MA in spinal cord ([6]; drug uptake studies (fluorimetry)): minimal uptake
- delay of uptake into the spinal cord ([6]; fluorescence microscopy): greater than 1 hour
- serum drug concentration ([6]; over 15 minutes post tail vein injection): rapid increase
- Death During PDT (animals) ([7]; MT-1 group, n = 20): 0
- Death Following Verteporfin Injection (animals) ([7]; MT-1 group, n = 20): 1
- Death During PDT (animals) ([7]; MT-1luc+ group, n = 30): 1
- Death Following Verteporfin Injection (animals) ([7]; MT-1luc+ group, n = 30): 2

Reference: patent US7771426B2, “Bone treatment instrument and method” (University Health Network, priority 2004, dated 2010)
